Source: the NIST ThermoML archive (doi:10.1021/je800463k)

Assay: mn = molality of the nth substance listed, in mol/kg
Conditions: 101 kPa, Liquid; for mass density: Pycnometric method; for electrical conductivity: Frequency=0.001 MHz, Alternating current cell with electrodes; for speed of sound: Frequency=2 MHz

CC(=O)[O-].CC(=O)[O-].[Mg+2] [magnesium acetate] + CO
Conditions	electrical conductivity [S/m]	mass density [kg/m3]	speed of sound [m/s]	viscosity [mPa·s]
299.65 K, m1 = 0.2422	–	803.36	–	–
300.15 K, m1 = 0.2003	–	800.18	–	–
300.2 K, m1 = 0.1402	–	796.94	–	–
300.25 K, m1 = 0.0646	–	791.69	–	–
300.35 K, m1 = 0.053	–	789.91	–	–
300.8 K, m1 = 0.0339	–	788.95	–	–
300.8 K, m1 = 0.3042	–	804.76	–	–
300.85 K, m1 = 0.014	–	787.26	–	–
300.85 K, m1 = 0.2668	–	803.07	–	–
301.1 K, m1 = 0.1112	–	794.25	–	–
301.5 K, m1 = 0.2422	–	801.62	–	–
301.9 K, m1 = 0.2003	–	798.5	–	–
301.9 K, m1 = 0.2192	–	799.27	–	–
301.95 K, m1 = 0.1798	–	798.03	–	–
302.05 K, m1 = 0.0646	–	790	–	–
302.15 K, m1 = 0.053	–	788.23	–	–
302.2 K, m1 = 0.0093	–	785.05	–	–
302.35 K, m1 = 0.0059	–	784.31	–	–
302.55 K, m1 = 0.3042	–	803.02	–	–
302.8 K, m1 = 0.2668	–	801.25	–	–
302.85 K, m1 = 0.1455	–	794.77	–	–
302.9 K, m1 = 0.1402	–	794.38	–	–
303.05 K, m1 = 0.0855	–	789.45	–	–
303.15 K, m1 = 0.0059	0.0362	783.47	1086.1	–
303.15 K, m1 = 0.0093	0.0586	–	1085.4	–
303.15 K, m1 = 0.014	–	–	–	0.5207
303.15 K, m1 = 0.018	0.0665	–	1086.1	0.5223
303.15 K, m1 = 0.0339	0.0868	–	–	0.5306
303.15 K, m1 = 0.053	0.1018	–	1087.5	–
303.15 K, m1 = 0.0646	0.1103	–	–	0.5393
303.15 K, m1 = 0.0855	0.122	–	1090.3	–
303.15 K, m1 = 0.1012	–	–	–	0.5622
303.15 K, m1 = 0.1024	0.1302	–	1093.3	–
303.15 K, m1 = 0.13	–	–	–	0.5718
303.15 K, m1 = 0.1402	0.1487	–	1092.4	0.5779
303.15 K, m1 = 0.1455	0.1524	–	1091.9	–
303.15 K, m1 = 0.17	–	–	–	0.5933
303.15 K, m1 = 0.1837	0.1617	–	1094.3	–
303.15 K, m1 = 0.2003	–	–	–	0.6048
303.15 K, m1 = 0.2192	–	–	1097.7	–
303.15 K, m1 = 0.2422	0.1746	–	1095.1	0.6232
303.15 K, m1 = 0.2453	–	–	–	0.6232
303.15 K, m1 = 0.2889	0.181	–	1098.2	0.642
303.15 K, m1 = 0.3042	–	–	1099.8	–
303.25 K, m1 = 0.2422	–	799.9	–	–
303.45 K, m1 = 0.0339	–	786.42	–	–
303.5 K, m1 = 0.014	–	784.74	–	–
303.65 K, m1 = 0.2192	–	797.61	–	–
303.75 K, m1 = 0.1112	–	791.73	–	–
303.95 K, m1 = 0.053	–	786.54	–	–
304.35 K, m1 = 0.3042	–	801.29	–	–
304.6 K, m1 = 0.1402	–	792.72	–	–
304.6 K, m1 = 0.1798	–	795.47	–	–
304.6 K, m1 = 0.2003	–	795.91	–	–
304.65 K, m1 = 0.0646	–	787.5	–	–
304.75 K, m1 = 0.0855	–	787.76	–	–
304.85 K, m1 = 0.2668	–	799.19	–	–
304.9 K, m1 = 0.0093	–	782.5	–	–
304.95 K, m1 = 0.0059	–	781.79	–	–
305.3 K, m1 = 0.014	–	783.09	–	–
305.5 K, m1 = 0.1455	–	792.24	–	–
305.65 K, m1 = 0.053	–	784.95	–	–
305.8 K, m1 = 0.2422	–	797.4	–	–
305.95 K, m1 = 0.0339	–	783.96	–	–
306.1 K, m1 = 0.3042	–	799.61	–	–
306.15 K, m1 = 0.2192	–	795.21	–	–
306.25 K, m1 = 0.1402	–	791.07	–	–
306.3 K, m1 = 0.1112	–	789.29	–	–
306.35 K, m1 = 0.2003	–	794.29	–	–
306.4 K, m1 = 0.1798	–	793.8	–	–
306.55 K, m1 = 0.0093	–	780.91	–	–
306.65 K, m1 = 0.0059	–	780.15	–	–
306.95 K, m1 = 0.2668	–	797.14	–	–
307.1 K, m1 = 0.0646	–	785.07	–	–
307.3 K, m1 = 0.053	–	783.25	–	–
307.3 K, m1 = 0.1455	–	790.54	–	–
307.35 K, m1 = 0.0855	–	785.26	–	–
307.5 K, m1 = 0.2422	–	795.76	–	–
307.7 K, m1 = 0.0339	–	782.34	–	–
307.7 K, m1 = 0.3042	–	797.95	–	–
307.75 K, m1 = 0.014	–	780.67	–	–
307.8 K, m1 = 0.2192	–	793.51	–	–
307.95 K, m1 = 0.1402	–	789.51	–	–
308.15 K, m1 = 0.0059	0.0369	–	1070.1	–
308.15 K, m1 = 0.0093	0.0592	–	1068.7	–
308.15 K, m1 = 0.018	0.0674	–	1071.5	–
308.15 K, m1 = 0.0339	0.0879	–	–	–
308.15 K, m1 = 0.053	0.103	–	1075.1	–
308.15 K, m1 = 0.0646	0.112	–	–	–
308.15 K, m1 = 0.0855	0.1232	–	–	–
308.15 K, m1 = 0.1024	0.1326	–	–	–
308.15 K, m1 = 0.1402	0.151	–	–	–
308.15 K, m1 = 0.1455	0.1557	–	–	–
308.15 K, m1 = 0.1837	0.1631	–	–	–
308.15 K, m1 = 0.2422	0.1782	–	–	–
308.15 K, m1 = 0.2889	0.1835	–	–	–
